Data published in article PMC12040169 (PLOS Biology, 2025).

assay: in vitro; settings: human, hela cells, % viability

Row | Structure (SMILES) | viability at 28.5 h, 10 µM [%]
1 | CCn1cc(C(=O)O)c(=O)c2cc(F)c(N3CCN(C(=S)NC(=O)c4c(-c5ccccc5)noc4C)CC3)cc21 [CBK267490] | 86.8
2 | O=C(Nc1nc2ccccc2s1)NC1CC1 [CBK007542] | 102
3 | O=C(NC(=O)C1CCN(CCc2cccc(C(F)(F)F)c2)CC1)Nc1cccc2ccccc12 [CBK035070] | 92.2
4 | CCOC(=O)N1CCN(C(=O)c2ccc(CS(=O)(=O)c3ccc(C)cc3)cc2)CC1 [CBK268659] | 88.3
5 | O=C(c1ccccn1)N1CCCC(c2cc3ccccc3cn2)C1 (stereo not drawn) [CBK282832] | 96.3
6 | O=S(=O)(Nc1ccc(N2CCNCC2)c2ccccc12)c1ccc(Cl)s1 [CBK003146C] | 104
7 | COc1cccc(-c2nnnn2[C@H]2CO[C@H]3[C@@H]2OC[C@@H]3NC(=O)c2ccc(C)cc2)c1 [CBK289512] | 94.1
8 | CCOc1ccccc1NC(=O)c1ccc(CS(=O)(=O)c2ccc(C)cc2)cc1 [CBK268572] | 95.1
9 | COc1ccc(C)cc1S(=O)(=O)N(CC(=O)O)c1ccc(C)c(Cl)c1 [CBK269655] | 83.3
10 | NC(=O)c1ccc(-n2ncc(-c3ccsc3)n2)cc1 [CBK112858] | 98.4
11 | COc1ccc(CCN2CCCCC2Cn2cncn2)cc1 (stereo not drawn) [CBK305095] | 108
12 | CC(=O)N1CCN(c2ccc(OCCO)cc2)CC1 [CBK001978] | 90.8
13 | COCCC(=O)NCc1ccc(OC2CCNCC2)cc1 [CBK024494T] | 98.6
14 | CC1CCN(C(=O)[C@@H]2CN(C)C[C@]23CCc2ccccc2C3=O)CC1 [CBK284589] | 100
15 | CCOC(=O)c1sc2nc(C(C)N(C)Cc3ccco3)[nH]c(=O)c2c1C (stereo not drawn) [CBK306148] | 106
16 | Cc1nc2ncc(-c3ccccc3C(=O)N(C(C)C)C(C)C)cn2n1 [CBK307054] | 84.1
17 | COc1cc(C=O)ccc1OCC(=O)Nc1ccc(C)c(Cl)c1 [CBK266190] | 111
18 | COc1ccc2cc(-c3cc(C(=O)O)c4ccccc4n3)ccc2c1 [CBK296093] | 88.4
19 | O=C(CC1CC2CCC1C2)N1CCC(O)(c2ccccn2)CC1 (stereo not drawn) [CBK283833] | 92.7
20 | Cc1ccc(-c2cnc(NC(=O)Cn3cccn3)n2C)cc1C [CBK281727] | 102
21 | Cc1cc(C[C@@H]2COC[C@H]2NCc2ccccc2C(F)(F)F)on1 [CBK285464] | 100
22 | COc1ccccc1-c1noc(CSc2nnc(-c3ccccc3)n2-c2ccc(C)c(C)c2)n1 [CBK269058] | 105

Row | Structure (SMILES) | viability at 28.5 h, 10 µM [%]
23 | CC(=O)c1ccc(-c2cc(N3CCN(C(=O)c4ccco4)CC3)ncn2)s1 [CBK036999] | 105
24 | CS(=O)(=O)N/N=C/c1cccc(Br)c1 [CBK026427] | 92.5
25 | O=C1NC2=C(C(=O)N(CCN3CCCC3)C2)C(c2cccc(F)c2)N1 (stereo not drawn) [CBK282365] | 105
26 | COc1ccccc1N1CCN(CC(CC(=O)Nc2ccccc2)C(=O)O)CC1 (stereo not drawn) [CBK286766] | 88.6
27 | CCOc1ccc(C)cc1S(=O)(=O)NCCc1c(C)[nH]c2c(Cl)cccc12 [CBK268859] | 86.8
28 | Cc1cc2c(cc3c(=O)n(CC(=O)N4CCCCC4)nc(C)n32)s1 [CBK284063] | 95.3
29 | CCn1c(C2CCN(C(=O)c3ccc(C)c(Cl)c3)CC2)nn(C)c1=O [CBK307280] | 95.9
30 | CCN(CC)C(=O)CN1C(=O)C2(Nc3ccccc3C(=O)N2c2ccc(F)cc2)c2ccccc21 (stereo not drawn) [CBK103751] | 83.3
31 | Cc1nc(C)c(C(=O)NCCN2CCCCC2C)s1 (stereo not drawn) [CBK282200] | 106
32 | CCC(C)c1ccc(OCC(=O)Nc2ccc3[nH]c(=O)[nH]c3c2)cc1 (stereo not drawn) [CBK266911] | 105
33 | O=C(CCS(=O)(=O)c1ccccc1)N(Cc1cccnc1)c1nc2c(F)cccc2s1 [CBK294422] | 81.5
34 | CCN(CC)CCCNC(=O)N1CCN(CCN2CCOCC2)CC1 [CBK155837] | 90.9
35 | CN(Cc1nc(-c2ccccc2)no1)C(=O)COCC1CCCCO1 (stereo not drawn) [CBK307643] | 106
36 | CCC(Sc1nnc(-c2ccc([N+](=O)[O-])cc2)n1C)C(=O)Nc1ccc(Cl)cc1 (stereo not drawn) [CBK265785] | 101
37 | CCc1nc2c(N3CCC(n4nc(C)cc4C)C3)ncnc2o1 (stereo not drawn) [CBK306785] | 111
38 | CN1CCCc2c1nc1ccc(Br)cc1c2N [CBK009692G] | 58.9
39 | COc1ccc(-c2nnc(SCC(=O)c3ccc(F)cc3)n2C2CCCCC2C)cc1 (stereo not drawn) [CBK297494] | 89.8
40 | CN1CCN(CC(O)COc2ccccc2)CC1 (stereo not drawn) [CBK278191G] | 83.8
41 | NS(=O)(=O)c1ccc(C(=O)N2CCC3(CCN(C(=O)c4ccoc4)C3)C2)cc1 (stereo not drawn) [CBK131736] | 95.2
42 | O=C1CCCc2nccc(-c3ccc(Cl)cc3)c21 [CBK287870] | 82.9
43 | CCN(CC)C(=O)c1sc2ncccc2c1NS(=O)(=O)c1ccc(C)c([N+](=O)[O-])c1 [CBK050618] | 112
44 | COc1ccc(Nc2cc(-n3nc(C)cc3-c3ccccc3)ncn2)cc1 [CBK293925] | 104

Row | Structure (SMILES) | viability at 28.5 h, 10 µM [%]
45 | Cc1nnc(-c2cc(CCC(C)C)n(-c3cccc(C(=O)N4CCCCC4)c3)n2)o1 [CBK114689] | 95.4
46 | CC(C)(C)OC(=O)N1CCC(NCc2ccccn2)CC1 [CBK304603] | 97.1
47 | COc1ccc(C2(O)CCN(CC(O)c3ccc(C(C)(C)C)cc3)CC2)cc1 (stereo not drawn) [CBK286333] | 90.6
48 | Cc1csc2c(N3CCCC3CC(O)c3cnn(C)c3)ncnc12 (stereo not drawn) [CBK304477] | 91.9
49 | O=C(NC(Cc1ccccc1)C(=O)O)c1ccc(Cl)cc1 (stereo not drawn) [CBK264677] | 96.1
50 | CCc1ccc(C(=O)NC(Cc2c[nH]c3ccccc23)C(=O)O)cc1 (stereo not drawn) [CBK269556] | 101
51 | Cn1cccc1C(=O)OCC(=O)N1CCCCC1 [CBK305903] | 99.5
52 | Cc1cc2c(s1)c1cnn(CC(=O)NC(C)(C)C)c(=O)c1n2C [CBK284158] | 86.6
53 | CC(C)[C@@H](Cn1nc(C2CC2)ccc1=O)NC(=O)c1ccco1 [CBK282321] | 88.3
54 | COc1ccc(S(=O)(=O)N(C)CC(=O)N2CCOCC2)cc1C [CBK267898] | 95.8
55 | O=C(Nc1ccccc1C(F)(F)F)N1CCN(c2ccccc2Cl)CC1 [CBK045081] | 79.7
56 | CC(=O)Nc1cccc(-c2ccc(C(=O)NCc3ccc(F)cc3)c(N3CCN(C(=O)c4ccco4)CC3)n2)c1 [CBK106012] | 85.5
57 | CCCNC(=O)Nc1ccc(Cl)c(C(=O)O)c1 [CBK287009] | 85.6
58 | CC(=O)NS(=O)(=O)c1ccc(NC(=O)/C=C/c2cccc([N+](=O)[O-])c2)cc1 [CBK300492] | 88.6
59 | C=CCn1c2ccccc2c2nnc(SCC(=O)Nc3c(C)n(C)n(-c4ccccc4)c3=O)nc21 [CBK263892] | 87.6
60 | CC(=O)OC1CCN(C(=O)c2cccc(C#N)c2)CC1 [CBK304648] | 93.3
61 | Cn1nc(-c2ccc(F)cc2)cc1[C@H]1CN2CC[C@H]1C[C@@H]2CNS(C)(=O)=O [CBK289109] | 98.8
62 | CCNC(=O)N1CC(C)N(CCCCc2ccc(F)cc2)C(C)C1 (stereo not drawn) [CBK025027C] | 89.9
63 | Cc1ccnn1CCC(=O)N1CCCCC1c1nc2ccccc2[nH]1 (stereo not drawn) [CBK282374] | 105
64 | O=C(NCc1csc2c1CCCC2)N1CCC(CO)CC1 [CBK307476] | 98.9
65 | Cc1c(C(=O)N2CCCCC2)sc2nc(C(F)(F)F)nn12 [CBK006455] | 105
66 | O=C(O)CCC(=O)N1C[C@@H]2C[C@H](C1)c1c(-c3ccc(Cl)cc3)ccc(=O)n1C2 [CBK289190] | 85.9

Row | Structure (SMILES) | viability at 28.5 h, 10 µM [%]
67 | O=C(Nc1nnc[nH]1)c1cccnc1Cl [CBK026067] | 113
68 | COc1ccc([C@@]23CCC(NC(=O)Nc4ccc(OCc5ccccc5)cc4)C[C@@H]2N(C)CC3)cc1OC (stereo partly drawn) [CBK047551T] | 105
69 | CCCc1nc(C(=O)N2Cc3cnn(Cc4ccc(F)cc4)c3C2)cs1 [CBK307249] | 86
70 | Cc1ccc(C(=O)O)cc1NC(=O)C(=O)NCC(c1ccccc1)N1CCN(C)CC1 (stereo not drawn) [CBK286864] | 92.4
71 | O=C(NC1CCN(Cc2c(F)cccc2Cl)CC1)C1CCN(C(=O)OCc2ccccc2)CC1 [CBK074720] | 108
72 | COc1ccc([N+](=O)[O-])cc1NC(=O)c1ccc(-c2cc3ccccc3oc2=O)cc1 [CBK267325] | 79.1
73 | COc1ccccc1CCC(=O)Nc1cnc(-c2ccc(F)cc2)c(-c2ccco2)n1 [CBK037002] | 95.1
74 | Cc1cc(NC(=O)c2ccc3ccccc3c2)nc2c1c(=O)oc1ccccc12 [CBK291122] | 117
75 | OC1(c2cccnc2)CCCC2CN(Cc3cc(F)ccc3F)CC21 (stereo not drawn) [CBK284513] | 103
76 | CCC(CC)n1nc(C(=O)NC2(C#N)CCSC2)cc1C (stereo not drawn) [CBK305111] | 103
77 | CN(C)c1ccnc2sc(C(N)=O)c(N)c12 [CBK061708] | 94
78 | COC(=O)C1(Cc2cc(-c3ccc(F)cc3)no2)CCOCC1 [CBK285329] | 79.3
79 | CC(=O)N[C@H]1CO[C@H]2[C@@H]1OC[C@@H]2n1nnnc1-c1ccccc1 [CBK289483] | 87.1
80 | O=C1c2ccccc2C(=O)N1c1ccc2nc(SCc3nc4ccccc4[nH]3)sc2c1 [CBK263368] | 95
81 | CCOC(=O)COc1ccc(C#N)cc1OCC [CBK058937] | 103
82 | O=C(Nc1nnc(Cc2cccs2)o1)c1ccccc1 [CBK287831] | 83.9
83 | O=[N+]([O-])c1ccc(CSc2nnc(-c3cnccn3)n2Cc2ccco2)cc1 [CBK267585] | 100
84 | CCC1CCCCN1S(=O)(=O)c1cccc2c(S(=O)(=O)N3CCCCC3CC)cccc12 (stereo not drawn) [CBK262073] | 92.8
85 | Cc1cc(Cl)ccc1CNC(=O)/C=C/c1ccc(C(C)C)cc1 [CBK149615] | 85.2
86 | COCCCOc1nc2ccccc2nc1C(F)(F)F [CBK115803] | 101

same assay, conditions: human, hela cells, % viability, bulk resorufin, single well

Row | Structure (SMILES) | viability at 28.5 h, 10 µM [%]
87 | CCN(CC)S(=O)(=O)c1ccc(N/C=C2/C(=O)NC(=O)N(c3ccccc3)C2=O)cc1 [CBK263372] | 89.9
